{"source": "patent US5132291A", "about": "“Antivirals and methods for increasing the antiviral activity of AZT” (priority 1989, dated 1992)", "key": {"SAH hydrolase": {"tested_on": "SAH hydrolase", "test": "SAH hydrolase inhibition", "type": "biochemical", "procedure": "The effect of incubation time and AICA riboside concentration on SAH hydrolase activity was determined as follows. Five samples of SAH hydrolase were incubated at the following AICA riboside concentrations: 0, 10, 25, 50 and 100 μM. The incubation buffer consisted of 25 mM potassium phosphate pH 7.0, 1 mM EDTA, 1 mM, DTT and 0.04% BSA. The total enzyme added to incubation mixture was 10 μg. At indicated times, 10 μl of sample was withdrawn and assayed in the following assay system: 25 mM potassium phosphate, pH 7.0, 40 mM DL-Homocysteine, 1 mM EDTA, 1 mM DTT, 10 μM EHNA, 0.1% BSA and 10 μM U-^14 C Adenosine (590 m Ci/mmole). The reaction was stopped by adding 15 μl of 30% TCA. The samples were then centrifuged and 15 μl were removed and applied to Kodak cellulose 13254 TLC plates along with SAH and adenosine markers. The plates were then developed in a solvent system of 1-butanol:methanol:H2 O:ammonium hydroxide (60:20:20:2). The adenosine and S-adenosyl homocysteine were visualized under UV light and the spots were cut from the plate. Radioactivity of the spots was determined by liquid scintillation spectrometry. From a plot of the reciprocal of Kinactivation vs. 1/AICA riboside concentration the values of Ki (X-intercept) and Kmax (Y-intercept), were determined (FIG. 10(b))."}, "HIV-1": {"tested_on": "HIV-1", "test": "HIV syncitial forming assay using CEM-SS cells", "type": "cell-based", "text": "The following cytomorphologic infectivity bioassay was used to characterize antiviral activity against HIV-1. In the following assay a single infectious unit of virus infects a single cell and initiates a focal expression of that infection, i.e., a syncitium. Since a single infectious unit leads to a discrete response, a linear relationship exists between the number of virally-induced cytopathic effects and the first order of virus concentration. Application of this procedure in assays for virus inactivation allows for evaluation of the candidate antiviral agent.\nCEM-SS (syncitium-sensitive Leu 3a-positive CEM cell line) cells were grown in RPMI 1640 cell culture media (Irvine Scientific) supplemented with 10% heat-inactivated fetal bovine serum (Gemini Bioproducts) and 1% […] glutamine (Gibco). Log-phase cells were split 1:2 with the growth medium the day prior to setting up the assay to standardize plating conditions and to assure a population of logarithmically growing cells. Ninety-six-well plates (Costar) were pretreated with 50 μl of 50 μg/ml poly-1-lysine (MW=295,000 Sigma) \"PLL\") and were left at room temperature for 60 minutes. Residual PLL was removed with two washes of PBS. The plates were stored in the incubator until used.\nOn the day of the assay, the cells were counted and enough cells were harvested to plate each well with 5.0×10^4 cells per well in a volume of 200 μl (or 20 ml of […] was appropriate for each 96-well microtitre plate).\nThe cells were plated out on the PLL pre-treated microtitre plates at 5.0×10^4 cells/well in a volume of 200 μl. After allowing attachment for 30 minutes at 37° C. and 5% CO2, the antiviral agent(s) were added in the noted amounts and the treated plates were pre-incubated for 24 hours.\nThe HIV-1 virus stock (isolated from infected H-9 cells) was diluted in growth medium to yield 100 SFU (syncytial-forming units) per well. Diluted HIV-1 virus, 20 μl, was added to appropriate wells. All the plates were then incubated for 5 days at 37° C. and 5% CO2. On day 5 post-infection, the cells were given a 100 μl media change. […]"}, "[1]": {"test": "Lymphoblast assay, effects on cell growth, CEM T-cell line", "type": "cell-based", "settings": "human, cem cells, AICA riboside alone, read-out: reduction in T-cell growth", "procedure": "Several lymphoblast lines were utilized in conjunction with varying doses of antiviral agents to determine their effects on cell growth. In this method a daily cell count over a period of time, post-addition of antiviral compounds, can be compared with the normal cell growth curve.\nTwo representative T-cell lines, SupT-1 and CEM, and a B-cell line, WI-L2, were grown to mid-log phase 5×10^5 cells/ml in 50 ml of RPMI 1640 (Irvine Scientific) supplemented with 10% heat-inactivated fetal calf serum (Gemini-Bioproducts) and 1% glutamine (Gibco) to standardize seeding conditions and to assure a population of logarithmically growing cells.\nAn appropriate number cf T-25 flasks (Corning) were seeded with evenly suspended cells at 0.5×10^5 cells/ml in 20 ml of fresh growth media. Including a control condition, each set of flasks was treated with a dose range of antiviral compound for each cell line. Each dose condition was repeated in triplicate. All flasks were incubated for 5 days at 37° C. in a 5% CO2 incubator.\nEvery 24 hours for 5 days, three 0.2 ml samples of each flask were diluted in 9.8 ml of isoton (Fisher Scientific) and counted on a cell counter (Coulter Co.). The average of each flask was recorded, and the average of each triplicate antiviral does was then averaged and recorded."}}, "note": "Read-outs that look alike come from different tables or passages of the source."}
{"molecule": "NC(=O)c1ncn([C@@H]2O[C@H](CO)[C@@H](O)[C@H]2O)c1N", "note": "[AICA riboside, 5-amino-1-β-D-ribofuranosyl-imidazole-4-carboxamide]", "values": [{"measurement": "inhibition of SAH hydrolase", "setting": "SAH hydrolase", "result": "very potent inhibitors"}, {"measurement": "inhibition of SAH hydrolase", "setting": "SAH hydrolase; even at a concentration as low as 10 μM", "result": "potent inhibitors"}, {"measurement": "antiviral effect (number of syncitia)", "setting": "HIV-1; AICA riboside 5 μM and 50 μM, 24 hour preincubation before HIV infection", "result": "antiviral effect"}, {"measurement": "antiviral effect with preincubation versus addition at the time of infection", "setting": "HIV-1; CEM cells, HIV", "result": "more effective as an antiviral with preincubation"}, {"measurement": "inhibition at 500 µM", "setting": "[1]", "result": "30 to 50", "unit": "%"}]}
